Test results: patent publication US6610686B1, “Use of pirenoxine for the protection of corneal tissues in photokeractomy” (Ausimont S.p.A., priority 1999, dated 2003)

What was measured:
[1] = reconstituted aqueous solution, ambient temperature; cited from earlier work
[2] = system: rabbit corneas incubated with f-MLP-stimulated autologous macrophages; assay: In vitro protection of whole corneas against ROS from f-MLP-stimulated autologous rabbit macrophages; assay type: cell-based; settings: 10^−5 M pirenoxine, 10^−7 M f-MLP stimulated macrophages, two hours at 37° C.
Method: In order to evaluate the inhibition exerted by pirenoxine against the oxidizing activity of macrophage produced ROS at level of the cornea, the following procedure was carried out: (a) broncho-alveolar washing of the rabbit to obtain the macrophages; (b) abstraction of the cornea from the rabbit eye; (c) incubation of the corneas with 10^−7 M f-MLP stimulated or not stimulated macrophages (800000 cells/well) for two hours at 37° C., 5 % CO2 in presence and in absence of 10^−5 M pirenoxine; (d) separation and homogenization of the epithelial and endothelial corneal cells and subsequent determination of fluorescence as described in b, c, d and f steps of the above methodology.

[3] = system: epithelium and endothelium homogenates of rabbit corneas; assay: In vitro Fe(III)-ascorbic acid induced lipid peroxidation in epithelium and endothelium homogenates of rabbit corneas; assay type: biochemical; settings: homogenate + 10 μM FeCl3 and ascorbic acid, 27° C., 30 minutes, 10^−5 M pirenoxine; mean ± SEM
Source text: The experimental procedure for the evaluation of the inhibiting action against the lipid-peroxidation exerted by pirenoxine in cornea epithelial and endothelial cells made use of Fe(III)-ascorbic acid system to induce the peroxidative phenomenon. The oxidative attack on membrane lipids was confirmed by the spectrophotometric determinations of both the conjugated dienes and fluorescent lipid-soluble substances which, as known, are generated by the oxidative degradation of lipid molecules.
Used experimental procedure included the following steps: a) abstraction of the cornea from the eye of male pigmented rabbits suitably selected and prepared for the study; b) incubation of the latter in 100 μM phosphate buffer, pH 7,5, in the presence of 1000 U collagenase and 5 μM CaCl2 for 20 hours at 37° C.; c) centrifugation at 35000 rpm at 0° C. for 10 minutes and washings of the sediment with phosphate buffer; d) homogenization of the cellular sediment in 1 ml of buffer, pH 7,4 (10% w/v); e) incubation of a suitable homogenate aliquot with 10 μM FeCl3 and ascorbic acid in phosphate buffer, pH 7,4, at 27° C. for 30 minutes in presence and in absence of 10^−5 M pirenoxine; f) extraction of the lipid-soluble substances using chloroform/methanol mixture (2:1 v/v). […]

rabbit corneas = assay: In vivo effect on rabbit corneas after intrastromal injection of UV irradiated ferritin; settings: two drops of 0,005% pirenoxine every hour 8 times a day over 4 days, corneas at 5th day
Method: (a) rabbits were anaesthetized by low pentobarbital doses (20 mg/kg); (b) 25 μl of 50 μM ferritin in 0,15 M NaCl were injected in the stroma of the cornea by a 0,33×13 mm/29G insulin syringe whereas the controls were treated with 25 μl physiological solution; (c) in the eyes every hour two drops (1 drop=30 μl) of 0,005% pirenoxine in 0,145 M NaCl 8 times a day over 4 days were instilled, whereas the controls were treated only with the solvent, in the same amount and frequency; (d) at the 5th day the animals were sacrificed using a pentobarbital overdose (100 mg/kg); (e) the corneas were abstracted and the tissue cells separated and collected according to the procedure described in the ex vivo experiment; (f) the conjugated dienes and fluorescent soluble lipid contained in suitable homogenate aliquots were determined.
In vivo conjugated diene and lipid soluble fluorescence substance formation in corneas 5 days after the rabbit eyes were submitted to intrastromal injection of UV-irradiated ferritin and topical instillation of pirenoxine solution (2 drops every hour for 8 hr over 4 days)

[4] = system: epithelial corneal cells (SIRC); assay: In vitro protection of UV312 irradiated epithelial corneal cells (SIRC); assay type: cell-based; settings: for Lipid-soluble fluorescent substances, U/mg protein / Lipid-soluble fluorescent substances, U/well: UV312 80 mJ/cm^2, 10^−5 pirenoxine, 17 hours at 37° C.
Method: The protective effect of pirenoxine on epithelial comeal cells (SIRC) irradiated for 36″ using UV312 light (80 mJ/cm^2), according to the following procedure: (a) the comeal cells were plated in 35 mm diameter wells; (b) at 80% confluency the cells were contacted with a medium at low (0,2%) serum content to inhibit the proliferation thereof during the experiment (c) the cells were irradiated with UV light in presence and in absence of 10^−5 pirenoxine, incubated at 37° C. for 17 hours and homogenized in 10 mM f) phosphate buffer, pH 7,4; (d) the lipid-soluble fluorescent substances and the proteins contained in suitable homogenate aliquots were determined.

O=C(O)c1cc(O)c2c3nc4ccccc4oc-3cc(=O)c2n1 [pirenoxine, 1-hydroxy-5-oxo-5H-pyrido-[3,2a]-phenoxazin-3-carboxylic acid]
Storage time of reconstituted solution without degradation [1]: about two weeks without degradation
Induced fluorescence of lipid soluble substances (FIG. 1) [2]: remarkably lower than the controls and are comparable to those of normal corneas (basal values)
Conjugated dienes [3]: 2.77 ± 0.07 nmol/hemicornea
Fluorescence (fluorescent lipid-soluble substances) [3]: 5.22 ± 0.13 U/hemicornea
Conjugated diene (rabbit corneas): 1.7 Nmoles/hemicornea
Fluorescence (rabbit corneas): 4.4 Unit/hemicornea
Lipid-soluble fluorescent substances, U/mg protein ([4]; Cells 14/01): 2.76 U/mg protein
Lipid-soluble fluorescent substances, U/well ([4]; Cells 14/01): 0.92 U/well
Lipid-soluble fluorescent substances, U/mg protein ([4]; Cells 17/12): 9.08 U/mg protein
Lipid-soluble fluorescent substances, U/well ([4]; Cells 17/12): 3.66 U/well
Lipid-soluble fluorescent substances, U/mg protein ([4]; Cells 20/12): 7.35 U/mg protein
Lipid-soluble fluorescent substances, U/well ([4]; Cells 20/12): 1.8 U/well
Lipid-soluble fluorescent substances relative to irradiated cells not protected by pirenoxine ([4]; UV312 irradiation, 10^−5 pirenoxine): notably lower (about two and half times)
